Source: patent US20030157205A1, “Inhibitory and preventative effects of processed morinda citrifolia on mutagenesis and carcinogenesis in mammals” (priority 2001, published 2003)

Tested on: mammary gland carcinogenesis induced by 17 β-estradiol (E2)
Experiment: Estrogen (E2 pellet)-induced mammary carcinogenesis in female ACI rats
Assay type: in vivo
Conditions: for survival rate: control 100%, placebo 0%
Excerpt: This study indicates the preventative effects of Methyl Sulfonyl Methane (MSM), processed Morinda citrifolia products (e.g., Tahitian Noni juice), and their combination on estrogen-induced mammary carcinogenesis in female ACI rats.
In the study, the preventative effects of MSM, Morinda citrifolia, and their combination on mammary gland carcinogenesis induced by 17 β-estradiol (estrogen)(E2) pellet implants in female ACI rats was studied. In the experiment, sixty (60), five week old female rats were divided into four groups, fifteen (15) rats each, and placed on regular diets. Another eight (8) female ACI rats were served as the age-matched controls. Five percent placebo, five percent Morinda citrifolia, five percent MSM, a combination of five percent Morinda citrifolia and MSM in drinking water was supplied to the animals in different groups until ninety days after E2 implantation. Two weeks later, all animals were implanted subcutaneously with a 25 mg pellet containing 22.5 mg of 17 β-estradiol (e2) mixed with 2.5 mg cholesterol, and the age-matched control animals received a 25 mg cholesterol pellet implant.

For CS(C)(=O)=O [MSM, Methyl Sulfonyl Methane], the body weight loss (5% in drinking water, E2-implanted female ACI rats, placebo group had significant loss vs cholesterol control) was “slight body weight loss”, the “percent of the rats with mammary tumors” value (5% in drinking water, E2 implant, placebo group one hundred percent) was “fifty-seven” and the “number of tumors per rat” value (5% in drinking water, E2 implant, placebo group three to seven) was “one to four”. The survival rate (160 days after E2 implantation) was 73%, the survival rate (180 days after E2 implantation) was 20% and the average tumor area (180 days after E2 implantation, placebo 17) was 12 mm2. For the same compound, the survival rate (200 days after E2 implantation) was 0%.
